Data: US20110184188A1, “Insecticidal Benzenedicarboxamide Derivative” (priority 2008, published 2011)

Assay: logP(acid) by reverse phase (C18) chromatography at pH 2.3
Assay type: physicochemical
Details: reverse phase (C18) chromatography at pH 2.3

| SMILES | logP (acid) | Physical property logP (acid) |
| --- | --- | --- |
| CSC[C@H](C)NC(=O)c1c(I)cccc1C(=O)Nc1ccc(Cn2nc(C(F)F)c(Cl)c2C(F)F)nc1C [13-145] | logP (acid) 3.34 |  |
| Cc1cc(Cn2nc(C(F)(F)F)cc2C(F)(F)F)ncc1NC(=O)c1cccc(I)c1C(=O)NC(C)C[S+](C)[O-] (mixture of isomers) [13-182] | logP (acid) 2.3 |  |
| CSCC(C)NC(=O)c1c(Cl)cccc1C(=O)Nc1ccc(Cn2nc(C(F)(F)C(F)F)nc2C(F)(F)C(F)F)nc1C (centres unmarked) [14-31] |  | logP (acid) 3.33 |
| Cc1cc(Cn2nc(C(F)(F)C(F)(F)F)nc2C(F)(F)F)ccc1NC(=O)c1cc(Cl)cc(Cl)c1C(=O)N[C@@H](C)CS(C)(=O)=O [10-12] | logP (acid) 3.61 |  |
| CNC(=O)c1cc(Cl)cc(Cl)c1C(=O)Nc1ccc(Cn2nc(C(F)(F)F)nc2C(F)(F)F)cc1C [12-4] | logP (acid) 3.39 |  |
| CSC[C@H](C)NC(=O)c1c(Cl)cc(Cl)cc1C(=O)Nc1ccc(Cn2nc(C(F)(F)C(F)(F)F)nc2C(F)(F)F)cc1C [10-10] | logP (acid) 4.64 |  |
| Cc1cc(Cn2nc(C(F)(F)C(F)(F)F)nc2C(F)(F)F)ccc1NC(=O)c1c(Br)ccc(Cl)c1C(=O)N[C@@H](C)CS(C)(=O)=O [11-32] | logP (acid) 3.47 |  |
| COc1ccc(Br)c(C(=O)Nc2ccc(Cn3nc(C(F)(F)F)cc3C(F)(F)F)nc2C)c1C(=O)N[C@@H](C)CSC [11-16] | logP (acid) 3.63 |  |
| CSCC(C)NC(=O)c1c(Cl)ccc(Cl)c1C(=O)Nc1ccc(Cn2nc(C(F)(F)F)cc2C(F)(F)F)nc1C (centres unmarked) [11-4] | logP (acid) 4.14 |  |
| CSC[C@H](C)NC(=O)c1c(Br)cccc1C(=O)Nc1ccc(Cn2nc(C(F)F)c(Cl)c2C(F)F)nc1C [13-126] | logP (acid) 3.28 |  |

Same assay, conditions: reverse phase (C18) chromatography at pH2.3, 0.1% phosphoric acid aqueous solution / acetonitrile, linear gradient 10-95%

| SMILES | logP (acid) |
| --- | --- |
| CSC[C@H](C)NC(=O)c1c(Cl)cccc1C(=O)Nc1cccc(Cn2nnc(-c3ccc(C(F)(F)F)cc3)n2)c1 [4-16] | logP (acid) 3.86 |

Same assay, conditions: reverse phase (C18) chromatography at pH2.3, 0.1% phosphoric acid aqueous solution / acetonitrile, linear gradient 10-95% acetonitrile

| SMILES | logP (acid) |
| --- | --- |
| Cc1cc(Cn2nc(C(F)(F)F)nc2C(F)(F)F)c(F)cc1NC(=O)c1cccc(Cl)c1C(=O)N[C@@H](C)C[S+](C)[O-] (some centres unmarked) [7-8] | logP (acid) 2.63 |

Same assay, conditions: reverse phase (C18) chromatography column, pH 2.3; reverse phase (C18) chromatography, pH2.3, 0.1% phosphoric acid / acetonitrile gradient 10-95%; read-out: logP (acid)

| SMILES | chromatographic logP |
| --- | --- |
| Cc1nc(Cn2nc(C(F)(F)C(F)(F)F)cc2C(F)(F)C(F)(F)F)ccc1[N+](=O)[O-] [SYNTHESIS EXAMPLE 81-1] | 4.68 |

Same assay, conditions: reverse phase (C18) chromatography, pH 2.3

| SMILES | logP (acid) |
| --- | --- |
| Cc1cc(Cn2nnc(-c3ccc(C(F)(F)F)cc3)n2)ccc1NC(=O)c1cccc(Cl)c1C(=O)N[C@@H](C)CS(C)(=O)=O [14-349] | logP (acid) 3.23 |
| CSC[C@H](C)NC(=O)c1c(Cl)cccc1C(=O)Nc1ccc(Cn2cc(C(=O)NCC(F)(F)F)c(C(F)(F)F)n2)cc1C [13-210] | logP (acid) 3.05 |
| Cc1cc(Cn2nc(C(F)(F)F)cc2C(F)(F)F)ccc1NC(=O)c1cccc(S(=O)(=O)N(C)C)c1C(=O)N[C@@H](C)CS(C)(=O)=O [13-349] | logP (acid) 3.07 |
| CSC[C@H](C)NC(=O)c1c(Br)cncc1C(=O)Nc1ccc(Cn2nc(C(F)(F)C(F)(F)F)nc2C(F)(F)F)cc1C [14-300] | logP (acid) 3.84 |
| CSC[C@H](C)NC(=O)c1c(Cl)cccc1C(=O)Nc1ccc(Cn2cc(C(=O)Nc3cc(C(F)(F)F)cc(C(F)(F)F)c3)c(C(F)(F)F)n2)cc1C [13-211] | logP (acid) 4.55 |
| Cc1nc(Cn2nc(C(F)(F)C(F)(F)F)nc2C(F)(F)F)ccc1NC(=O)c1cccc(S(C)(=O)=O)c1C(=O)N[C@@H](C)C[S+](C)[O-] (some centres unmarked) [14-394] | logP (acid) 2.39 |
| CCOC(=O)c1cn(Cc2ccc(NC(=O)c3cccc(Cl)c3C(=O)N[C@@H](C)CSC)c(C)c2)nc1C(F)(F)F [13-202] | logP (acid) 3.43 |
| CSC[C@H](C)NC(=O)c1c(Cl)cccc1C(=O)Nc1ccc(Cn2cc(C(=O)C(F)(F)C(F)(F)F)c(C(F)(F)C(F)(F)F)n2)cc1C [13-205] | logP (acid) 4.46 |
| CSC[C@H](C)NC(=O)c1c(I)cccc1C(=O)Nc1cnc(Cn2nc(C(F)(F)F)nc2C(F)(F)F)cc1C [14-274] | logP (acid) 3.44 |
| CSCC(C)NC(=O)c1c(Cl)cccc1C(=O)Nc1ccc(Cn2cc(C3=NOC(c4cc(Cl)cc(Cl)c4)(C(F)(F)F)C3)c(C(F)(F)F)n2)cc1C (mixture of isomers) [13-201] | logP (acid) 3.43 |
| CC(=O)CC(C)NC(=O)c1c(I)cccc1C(=O)Nc1ccc(Cn2nc(C(F)(F)C(F)(F)F)nc2C(F)(F)F)cc1C (centres unmarked) [14-297] | logP (acid) 3.70 |
| CSC[C@H](C)NC(=O)c1c(Cl)cccc1C(=O)Nc1ccc(Cn2cc(C(=O)NC(C)C(F)(F)F)c(C(F)(F)F)n2)cc1C (some centres unmarked) [13-208] | logP (acid) 3.25 |
| Cc1nc(Cn2nc(C(F)(F)F)cc2C(F)(F)F)ccc1NC(=O)c1c(Cl)cccc1C(=O)NC1=NN(c2ccccc2)C(=O)C1 [13-281] | logP (acid) 4.41 |
| CSC[C@H](C)NC(=O)c1c(C(=O)Nc2ccc(Cn3nc(C(F)(F)C(F)(F)F)nc3C(F)(F)F)nc2C)cccc1S(C)(=O)=O [14-393] | logP (acid) 3.34 |
| Cc1nc(Cn2nc(C(F)(F)F)nc2C(F)(F)F)ccc1NC(=O)c1cccc(S(C)(=O)=O)c1C(=O)N[C@@H](C)C[S+](C)[O-] (some centres unmarked) [14-366] | logP (acid) 2.07 |
| Cc1cc(Cn2nc(C(F)(F)F)cc2C(F)(F)F)ccc1NC(=O)c1c(Cl)cccc1C(=O)NCC#N [13-198] | logP (acid) 3.32 |
| CSC[C@H](C)NC(=O)c1c(C(=O)Nc2ccc(Cn3nc(C(F)(F)F)nc3C(F)(F)F)nc2C)cccc1S(=O)(=O)N(C)C [14-365] | logP (acid) 3.30 |
| CSC[C@H](C)NC(=O)c1c(C(=O)Nc2ccc(Cn3nc(C(F)(F)F)nc3C(F)(F)F)nc2C)cccc1S(C)(=O)=O [14-364] | logP (acid) 2.98 |
| CSC[C@H](C)NC(=O)c1c(SC)cccc1C(=O)Nc1cnc(Cn2nc(C(F)(F)F)nc2C(F)(F)F)cc1C [14-415] | logP (acid) 3.3 |
| CSC[C@H](C)NC(=O)c1c(Cl)cccc1C(=O)Nc1ccc(Nc2c(SC(F)(F)F)c(C(F)(F)F)nn2-c2c(Cl)cc(C(F)(F)F)cc2Cl)nc1C [13-227] | logP (acid) 5.09 |
| Cc1nc(Cn2nc(C(F)(F)F)nc2C(F)(F)F)ccc1NC(=O)c1cccc(S(=O)(=O)N(C)C)c1C(=O)N[C@@H](C)C[S+](C)[O-] (some centres unmarked) [14-367] | logP (acid) 2.25 |
| Cc1cc(Cn2nc(C(F)(F)C(F)(F)F)nc2C(F)(F)F)ccc1NC(=O)c1cccc(Br)c1C(=O)NC(C)CC1(C)OCCO1 (centres unmarked) [14-362] | logP (acid) 3.92 |
| CCS(=O)(=O)c1cccc(C(=O)Nc2ccc(Cn3nc(C(F)(F)F)cc3C(F)(F)F)cc2C)c1C(=O)N[C@@H](C)CSC [13-346] | logP (acid) 3.74 |

Same assay, conditions: reverse phase (C18) chromatography, pH2.3, 0.1% phosphoric acid / acetonitrile gradient 10-95%

| SMILES | logP (acid) |
| --- | --- |
| CNC(=O)c1cc(Cl)cc(Cl)c1C(=O)Nc1cc(Cl)ccc1Cn1nc(C(F)(F)F)nc1C(F)(F)F [3-2] | logP (acid) 3.84 |
| CSC[C@H](C)NC(=O)c1c(Cl)cccc1C(=O)Nc1cc(F)c(C)cc1Cn1nc(C(F)(F)F)nc1C(F)(F)F [3-8] | logP (acid) 4.13 |

Same assay, conditions: reverse phase (C18) chromatography, pH2.3, 0.1% phosphoric acid aqueous solution / acetonitrile, linear gradient 10-95% acetonitrile

| SMILES | logP (acid) |
| --- | --- |
| Cc1cc(Cn2nc(C(F)(F)C(F)(F)F)nc2C(F)(F)F)ccc1NC(=O)c1ccc(F)c(Br)c1C(=O)N[C@@H](C)CS(C)(=O)=O [9-22] | logP (acid) 3.36 |
| CSC[C@H](C)NC(=O)c1c(C(=O)Nc2ccc(Cn3nc(C(F)(F)F)cc3C(F)(F)F)nc2C)ccc(C(F)(F)F)c1Cl [9-26] | logP (acid) 4.25 |
| CSC[C@H](C)NC(=O)c1c(C(=O)Nc2ccc(Cn3nc(C(F)(F)F)cc3C(F)(F)F)cc2C)ccc(C(F)(F)F)c1Cl [9-14] | logP (acid) 4.62 |
